For 30 molecules, IC50 results are on record in patent US8426437B2, “Pyrroloquinoline derivatives and their use as protein kinases inhibitors” (Pierre Fabre Medicament, priority 2005, dated 2013).

Where a name gives a salt, the structure may show the parent alone.

This assay addresses T1, RET (Homo sapiens, UniProt P07949).
T1 construct: purchased Upstate 14-570MG
Nature of the assay: Inhibition of RET kinase activity, recombinant RET method (Kinase-Glo). The format is biochemical. To be noted: RET 2 μg/ml, poly-EY4 substrate, 20 μM ATP, two hours at 30° C. How it is done:
The inhibition of the kinase activity of the compounds of the invention is assessed by measuring their IC50 on RET.
where: • Y is the value of the luminescence • X is the logarithm of the concentration of the compound • Bottom is the minimum Y value • Top is the maximum Y value • LogIC50 is the value of X when Y is 50% from Top—Bottom.
The quantity of RET required is 2 μg/ml.
The following buffer is used for dilution of RET: 20 mM MOPS/NaOH pH7.0, 1 mM EDTA, 5% glycerol, 0.01% Brij35 (Sigma B4184), 0.1% 2-mercaptoethanol, 1 mg/ml BSA (Sigma A3059-10G).
The dilution of the compounds of the invention is distributed so as to obtain a scale of final concentrations between 10 nM and 30 μM.
After incubation of the reaction mixture for two hours at 30° C., the level of ATP that remains is assayed using the Kinase-Glo Luminescent Kinase Assay (Promega #V6712) according to the conditions recommended by the supplier. The luminescence induced is read in a plate reader (Envision-Perkin Elmer).
A general note: In Kinase-Glo more light means more ATP remaining.

T1 sequence (P07949 29-1114): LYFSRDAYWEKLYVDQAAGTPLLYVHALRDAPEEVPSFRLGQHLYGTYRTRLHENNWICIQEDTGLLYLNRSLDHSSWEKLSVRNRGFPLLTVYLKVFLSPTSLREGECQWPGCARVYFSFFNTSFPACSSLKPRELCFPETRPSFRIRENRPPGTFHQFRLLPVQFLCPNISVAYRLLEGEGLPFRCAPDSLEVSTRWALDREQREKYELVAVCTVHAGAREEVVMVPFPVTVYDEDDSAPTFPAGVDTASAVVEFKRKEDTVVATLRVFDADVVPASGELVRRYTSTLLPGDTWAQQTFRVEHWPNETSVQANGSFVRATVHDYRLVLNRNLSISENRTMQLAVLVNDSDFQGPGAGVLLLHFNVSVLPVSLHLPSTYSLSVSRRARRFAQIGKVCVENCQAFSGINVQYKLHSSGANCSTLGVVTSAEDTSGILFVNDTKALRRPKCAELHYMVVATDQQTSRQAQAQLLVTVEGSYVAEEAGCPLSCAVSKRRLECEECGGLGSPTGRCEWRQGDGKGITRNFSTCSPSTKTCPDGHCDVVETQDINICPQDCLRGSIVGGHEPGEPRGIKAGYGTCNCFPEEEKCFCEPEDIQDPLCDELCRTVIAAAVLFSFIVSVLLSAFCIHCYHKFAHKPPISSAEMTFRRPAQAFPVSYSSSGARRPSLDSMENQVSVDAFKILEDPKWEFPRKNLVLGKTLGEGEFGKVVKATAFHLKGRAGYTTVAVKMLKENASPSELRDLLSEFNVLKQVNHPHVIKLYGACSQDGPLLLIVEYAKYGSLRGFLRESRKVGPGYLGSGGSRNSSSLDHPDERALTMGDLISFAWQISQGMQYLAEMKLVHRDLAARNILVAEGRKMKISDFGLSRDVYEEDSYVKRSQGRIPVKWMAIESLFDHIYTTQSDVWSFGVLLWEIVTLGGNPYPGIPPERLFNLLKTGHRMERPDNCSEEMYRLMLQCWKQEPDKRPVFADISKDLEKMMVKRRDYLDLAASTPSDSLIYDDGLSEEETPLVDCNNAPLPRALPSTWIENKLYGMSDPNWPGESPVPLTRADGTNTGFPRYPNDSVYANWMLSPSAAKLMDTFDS

A word on the IC50: it is the concentration needed to halve the response being measured. In the case of `COC(=O)c1c[nH]c2c(=O)[nH]c3ccc(S(=O)(=O)NC4CCCC4)cc3c12` [Compound 92, 8-Cyclopentylsulfamoyl-4-oxo-4,5-dihydro-3H-pyrrolo[2,3-c]quinoline-1-methyl carboxylate], the half-maximal inhibitory concentration (IC50) fell in the range of 1000 to 10000 nM.
The value for `CCOC(=O)c1c[nH]c2c(=O)[nH]c3ccc(S(N)(=O)=O)cc3c12` [Compound 96, 4-Oxo-8-sulfamoyl-4,5-dihydro-3H-pyrrolo[2,3-c]quinoline-1-ethyl carboxylate] was 100 to 1000 nM; that for `CCOC(=O)c1c[nH]c2c(=O)[nH]c3ccc(S(=O)(=O)Nc4ccc(O)cc4)cc3c12` [Compound 98, 8-(4-Hydroxy-phenylsulfamoyl)-4-oxo-4,5-dihydro-3H-pyrrolo[2,3-c]quinoline-1-ethyl carboxylate] was less than 100 nM.
The value for `CCOC(=O)c1c[nH]c2c(=O)[nH]c3ccc(F)cc3c12` [Compound 99, 8-Fluoro-4-oxo-4,5-dihydro-3H-pyrrolo[2,3-c]quinoline-1-ethyl carboxylate] was 10000 to 100000 nM; that for `CCN(CC)CCOC(=O)c1c[nH]c2c(=O)[nH]c3ccc(F)cc3c12` [Compound 100, 8-Fluoro-4-oxo-4,5-dihydro-3H-pyrrolo[2,3-c]quinoline-1-carboxylate of 2-diethylaminoethyl] was 10000 to 100000 nM; that for `CCOC(=O)c1c[nH]c2c(=O)[nH]c3ccc(C(C)=O)cc3c12` [Compound 101, 8-Acetyl-4-oxo-4,5-dihydro-3H-pyrrolo[2,3-c]quinoline-1-ethyl carboxylate] was 1000 to 10000 nM.
The value for `CCOC(=O)c1c[nH]c2c(=O)[nH]c3ccc(C(=O)c4ccccc4)cc3c12` [Compound 102, 8-Benzoyl-4-oxo-4,5-dihydro-3H-pyrrolo[2,3-c]quinoline-1-ethyl carboxylate] was 1000 to 10000 nM.
For `CN(c1ccc(F)cc1)S(=O)(=O)c1ccc2[nH]c(=O)c3[nH]cc(C(=O)O)c3c2c1` [Compound 103, 8-[(4-Fluorophenyl)-methyl-sulfamoyl]-4-oxo-4,5-dihydro-3H-pyrrolo[2,3-c]quinoline-1-carboxylic acid], the half-inhibitory concentration (IC50) was 10000 to 100000 nM.
With `CN(c1ccc(F)cc1)S(=O)(=O)c1ccc2[nH]c(=O)c3[nH]cc(C(=O)OCCO)c3c2c1` [Compound 104, 8-[(4-Fluorophenyl)-methyl-sulfamoyl]-4-oxo-4,5-dihydro-3H-pyrrolo[2,3-c]quinoline-1-2-hydroxyethyl carboxylate] the figure was 1000 to 10000 nM; with `CN(c1ccc(F)cc1)S(=O)(=O)c1ccc2[nH]c(=O)c3[nH]cc(C(=O)OCCN)c3c2c1` [Compound 105, 8-[(4-Fluorophenyl)-methyl-sulfamoyl]-4-oxo-4,5-dihydro-3H-pyrrolo[2,3-c]quinoline-1-2-aminoethyl trifluoroacetate carboxylate], 10000 to 100000 nM; with `CN(c1ccc(F)cc1)S(=O)(=O)c1ccc2[nH]c(=O)c3[nH]cc(C(=O)OCCNC(=O)OC(C)(C)C)c3c2c1` [Compound 106, 2-tert-Butoxycarbonylaminoethyl 8-[(4-fluorophenyl)-methyl-sulfamoyl]-4-oxo-4,5-dihydro-3H-pyrrolo[2,3-c]quinoline-1-carboxylate], 10000 to 100000 nM.
The value for `CN(c1ccc(F)cc1)S(=O)(=O)c1ccc2[nH]c(=O)c3[nH]cc(C(=O)OCCCN)c3c2c1` [Compound 107, Trifluoroacetate of 8-[(4-fluorophenyl)-methyl-sulfamoyl]-4-oxo-4,5-dihydro-3H-pyrrolo[2,3-c]quinoline-1-3-aminopropyl carboxylate] was 10000 to 100000 nM; that for `CN(c1ccc(F)cc1)S(=O)(=O)c1ccc2[nH]c(=O)c3[nH]cc(C(=O)OCCCNC(=O)OC(C)(C)C)c3c2c1` [Compound 108, 3-tert-Butoxycarbonylamino-propyl 8-[(4-fluorophenyl)-methyl-sulfamoyl]-4-oxo-4,5-dihydro-3H-pyrrolo[2,3-c]quinoline-1-carboxylate] was 10000 to 100000 nM; that for `CCCNC(=O)c1c[nH]c2c(=O)[nH]c3ccc(S(=O)(=O)N(C)C)cc3c12` [Compound 109, N-Propyl-8-dimethylsulfamoyl-4-oxo-4,5-dihydro-3H-pyrrolo[2,3-c]quinoline-1-carboxamide] was 10000 to 100000 nM.
The value for `CCCN(C)C(=O)c1c[nH]c2c(=O)[nH]c3ccc(S(=O)(=O)N(C)C)cc3c12` [Compound 110, N-Methyl-N-propyl-8-dimethylsulfamoyl-4-oxo-4,5-dihydro-3H-pyrrolo[2,3-c]quinoline-1-carboxamide] was 10000 to 100000 nM; that for `CN1CCC(NS(=O)(=O)c2ccc3[nH]c(=O)c4[nH]cc(C(=O)OC5CCCC5)c4c3c2)CC1` [Compound 119, 8-(q-Methyl-piperidin-4-ylsulfamoyl)-4-oxo-4,5-dihydro-3H-pyrrolo[2,3-c]quinoline-1-cyclopentyl carboxylate] was 100 to 1000 nM; that for `CCOC(=O)c1c[nH]c2c(=O)[nH]c3ccc(S(=O)(=O)NC4CC5CCC(C4)N5)cc3c12` (stereo not drawn) [Compound 122, 8-(8-Aza-bicyclo[3.2.1]oct-3-ylsulfamoyl)-4-oxo-4,5-dihydro-3H-pyrrolo[2,3-c]quinoline-1-ethyl carboxylate] was less than 100 nM.
Turning to `CCCOC(=O)c1c[nH]c2c(=O)[nH]c3ccc(S(=O)(=O)NC4CC4)cc3c12` [Compound 124, 8-Cyclopropylsulfamoyl-4-oxo-4,5-dihydro-3H-pyrrolo[2,3-c]quinoline-1-propyl carboxylate], the concentration for half-maximal inhibition (IC50) was in the range of 100 to 1000 nM.
As to `CCCOC(=O)c1c[nH]c2c(=O)[nH]c3ccc(S(=O)(=O)N(C)C4CC4)cc3c12` [Compound 125, 8-(Cyclopropyl-methyl-sulfamoyl)-4-oxo-4,5-dihydro-3H-pyrrolo[2,3-c]quinoline-1-propyl carboxylate], the IC50 was less than 100 nM.
The value for `CCCOC(=O)c1c[nH]c2c(=O)[nH]c3ccc(S(=O)(=O)N(C)CCC#N)cc3c12` [Compound 126, 8-[(2-Cyano-ethyl)-methyl-sulfamoyl]-4-oxo-4,5-dihydro-3H-pyrrolo[2,3-c]quinoline-1-propyl carboxylate] was 100 to 1000 nM; that for `CCCOC(=O)c1c[nH]c2c(=O)[nH]c3ccc(S(=O)(=O)N(C)CC#N)cc3c12` [Compound 128, 8-(Cyanomethyl-methyl-sulfamoyl)-4-oxo-4,5-dihydro-3H-pyrrolo[2,3-c]quinoline-1-propyl carboxylate] was 100 to 1000 nM; that for `CCCOC(=O)c1c[nH]c2c(=O)[nH]c3ccc(S(=O)(=O)N(C)CC4OCCO4)cc3c12` [Compound 129, 8-[1,3]Dioxolan-2-ylmethyl-methyl-sulfamoyl)-4-oxo-4,5-dihydro-3H-pyrrolo[2,3-c]quinoline-1-propyl carboxylate] was 100 to 1000 nM.
The value for `CCCOC(=O)c1c[nH]c2c(=O)[nH]c3ccc(S(=O)(=O)N(C)C4CCSCC4)cc3c12` [Compound 131, 8-[Methyl-(tetrahydro-thiopyran-4-yl)-sulfamoyl]-4-oxo-4,5-dihydro-3H-pyrrolo[2,3-c]quinoline-1-propyl carboxylate] was 100 to 1000 nM; that for `CCCOC(=O)c1c[nH]c2c(=O)[nH]c3ccc(S(=O)(=O)N(C)C4CCS(=O)(=O)CC4)cc3c12` [Compound 132, 8-[(1,1-Dioxo-hexahydro-1,6-thiopyran-4-yl)-methyl-sulfamoyl]-4-oxo-4,5-dihydro-3H-pyrrolo[2,3-c]quinoline-1-propyl carboxylate] was 1000 to 10000 nM; that for `CCCOC(=O)c1c[nH]c2c(=O)[nH]c3ccc(S(=O)(=O)N(C)C4CCOCC4)cc3c12` [Compound 133, 8-[Methyl-(tetrahydro-pyran-4-yl)-sulfamoyl]-4-oxo-4,5-dihydro-3H-pyrrolo[2,3-c]quinoline-1-propyl carboxylate] was less than 100 nM.
Regarding `C#CCN(C)S(=O)(=O)c1ccc2[nH]c(=O)c3[nH]cc(C(=O)OCCC)c3c2c1` [Compound 134, 8-(Methyl-prop-2-ynyl-sulfamoyl)-4-oxo-4,5-dihydro-3H-pyrrolo[2,3-c]quinoline-1-propyl carboxylate], the IC50 was 100 to 1000 nM.
The value for `CCCOC(=O)c1c[nH]c2c(=O)[nH]c3ccc(S(=O)(=O)N(C)CCSC)cc3c12` [Compound 135, 8-[Methyl-(2-methylsulfanyl-ethyl)-sulfamoyl]-4-oxo-4,5-dihydro-3H-pyrrolo[2,3-c]quinoline-1-propyl carboxylate] was 100 to 1000 nM; that for `CCCOC(=O)c1c[nH]c2c(=O)[nH]c3ccc(S(=O)(=O)N(C)CCN(C)C)cc3c12` [Compound 136, 8-[(2-Dimethylamino-ethyl)-methyl-sulfamoyl]-4-oxo-4,5-dihydro-3H-pyrrolo[2,3-c]quinoline-1-propyl carboxylate] was less than 100 nM; that for `CCCOC(=O)c1c[nH]c2c(=O)[nH]c3ccc(S(=O)(=O)N(C)CCN4CCCC4)cc3c12` [Compound 137, 8-[Methyl-(2-pyrrolidin-1-yl-ethyl)-sulfamoyl]-4-oxo-4,5-dihydro-3H-pyrrolo[2,3-c]quinoline-1-propyl carboxylate] was 100 to 1000 nM.
With `CCCOC(=O)c1c[nH]c2c(=O)[nH]c3ccc(S(=O)(=O)N(C)CCN(CC)CC)cc3c12` [Compound 138, 8-[(2-Diethylamino-ethyl)-methyl-sulfamoyl]-4-oxo-4,5-dihydro-3H-pyrrolo[2,3-c]quinoline-1-propyl carboxylate] the figure was 100 to 1000 nM.
